Structures can show the parent of a compound that is named as a salt.
Tested on: human pulmonary artery endothelial cells (HPAEC)
Experiment: Tube formation assay of test differentiated cells co-cultured with HPAEC
Assay type: cell-based
Conditions: co-culture of HPAEC and test differentiated cells, 1 μM imatinib mesylate, FIG. 2
Protocol: Next, test differentiated cells were further characterized with a tube formation assay using the following protocol. Test differentiated cells were co-cultured with human pulmonary artery endothelial cells (HPAEC) with or without 1 μM imatinib mesylate to inhibit angiogenesis, and tube formation was observed. Specifically, the wells of 96-well plates (Costar, Product No. 387) were coated with 30 μL of Matrigel® GFR. Plates were spun for 1 minute at 1,500 rotations per minute (RPM) and incubated for 30 minutes at 30° C. Cells were then lifted from culture plates, counted and resuspended in DMEM/F12 media such that 30 μL of media was available for each well. Each well received 30,000 HPAEC and 5,000 differentiated cells.
Green labeling of HPAEC was performed using Nuclight Green Lentivirus, Essen/Sartorius #4475. 100 μL of transfection reagent was added to 5 mL of media and mixed. In another 5 mL of media, 10 μL of needed lentivirus was added and mixed. Both 5 mL preparations were then added together, mixed, and added to an approximately 70% confluent plate of HPAEC or pericytes. Plates were allowed grow overnight in incubator.
Media and lentivirus preparation was removed and replaced with fresh media, and plates were incubated overnight. Plates were incubated for one week, using 1 μg of puromycin in the media for daily media changes […]

## Cc1ccc(NC(=O)c2ccc(CN3CCN(C)CC3)cc2)cc1Nc1nccc(-c2cccnc2)n1 [imatinib mesylate]
  tube formation and co-localization with HPAEC: did not

Reference: patent US20240052317A1, “Methods for Differentiating Stromal Cells or Pericytes” (Lung Biotechnology PBC, priority 2022, published 2024)
